In patent US20220306587A1, “COMPOUNDS AND USE THEREOF FOR THE TREATMENT OF INFECTIOUS DISEASES AND CANCER” (AC BIOSCIENCE SA, priority 2019, published 2022):

Key:
[1] = target: T1, recombinant human Pyridoxal kinase (PDXK) (Homo sapiens, UniProt O00764); experiment: In vitro phosphorylation by recombinant human pyridoxal kinase (ADP formation, ADPglo luminescence); type: biochemical; conditions: 200 μM compound, 10 μg/ml rhPDXK, 1 mM ATP, 1 hour at 37° C.; FIG. 2
T1 sequence (O00764 1-312): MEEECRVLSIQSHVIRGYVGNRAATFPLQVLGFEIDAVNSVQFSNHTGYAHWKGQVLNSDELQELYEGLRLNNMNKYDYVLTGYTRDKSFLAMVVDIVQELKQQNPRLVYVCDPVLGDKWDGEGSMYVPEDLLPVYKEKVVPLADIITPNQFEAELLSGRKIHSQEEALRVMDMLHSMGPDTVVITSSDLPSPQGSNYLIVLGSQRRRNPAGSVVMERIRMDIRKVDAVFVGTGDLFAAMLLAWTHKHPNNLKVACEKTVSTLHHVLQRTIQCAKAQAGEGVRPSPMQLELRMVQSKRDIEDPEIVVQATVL
Protocol: ACB1906, A6770, 4-DOP (200 μM) and pyridoxal HCL (1 mM) were incubated with 10 μg/ml rhPDXK for 1 hour at 37° C. in the presence of 1 mM ATP containing—10 mM HEPES buffer with 0.05% Triton X-100, 0.01% Plurogenic F127, 25 μM Na3VO4 and 250 μM MgCl2. ADP formation was measured using the luminescence-based ADPglo kit from Promega. Statistical significance determined by Anova. *denotes p<0.05.
ACB1906's ability to be phosphorylated by recombinant human Pyridoxal kinase (PDXK) in vitro was compared to the structurally similar known imidazole S1PL inhibitor A6770, the PDXK and S1PL non-specific inhibitor 4-deoxypyridoxine (4-DOP) and the natural pyridoxal ligand. […] Increased phosphorylation of thiazole compounds confers an advantage in therapeutic applications as this would be a limiting step for its ability to effect a therapeutically relevant modulation in S1P levels.

[2] = target: T2, S1P lyase (Mus musculus, UniProt Q8R0X7); conditions: administered to mice; cited from earlier work
T2 construct: host or cells: mice (in vivo)
T2 sequence (Q8R0X7 1-568): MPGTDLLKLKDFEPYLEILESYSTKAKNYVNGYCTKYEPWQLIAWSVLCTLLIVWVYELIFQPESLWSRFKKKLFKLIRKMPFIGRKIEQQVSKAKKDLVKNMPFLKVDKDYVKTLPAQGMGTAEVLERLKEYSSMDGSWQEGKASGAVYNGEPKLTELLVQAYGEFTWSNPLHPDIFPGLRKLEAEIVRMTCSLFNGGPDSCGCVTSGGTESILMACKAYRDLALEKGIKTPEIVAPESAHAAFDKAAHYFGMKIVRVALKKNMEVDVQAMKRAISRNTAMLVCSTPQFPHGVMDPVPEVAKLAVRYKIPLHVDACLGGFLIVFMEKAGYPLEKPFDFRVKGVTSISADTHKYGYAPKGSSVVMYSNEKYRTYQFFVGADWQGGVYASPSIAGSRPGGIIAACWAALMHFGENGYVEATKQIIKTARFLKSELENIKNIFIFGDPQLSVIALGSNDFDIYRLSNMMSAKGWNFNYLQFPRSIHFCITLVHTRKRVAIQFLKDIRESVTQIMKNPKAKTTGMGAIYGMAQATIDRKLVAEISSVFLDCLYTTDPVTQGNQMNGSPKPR

[3] = target: T1, recombinant human Pyridoxal kinase (PDXK); conditions: already reported; cited from earlier work

With `CC(=O)c1nc(CO)cs1` [Compound 6] the “ability to be phosphorylated (ADP formation) in comparison to A6770” value [1] was ~2 fold.
In the case of `CC(=O)c1nc([C@@H](O)[C@H](O)[C@H](O)CO)c[nH]1` [THI, 1-(4-((1R,2S,3R)-1,2,3,4-Tetrahydroxybutyl)-1H-imidazol-2-yl)ethan-1-one], the S1P lyase activity [2] is given as “inhibits S1P lyase activity”.
In the case of `CC(=O)c1nc(CO)c[nH]1` [Compound A6770, 1-(4-(Hydroxymethyl)-1H-imidazol-2-yl)ethan-1-one], the “phosphorylation by PDXK to A6770-P” value [3] is given as “reported to phosphorylate”.
